Assay results from patent US8658791B2, “2-substituted-6-amino-5-alkyl, alkenyl or alkynyl-4-pyrimidinecarboxylic acids and 6-substituted-4-amino-3-alkyl, alkenyl or alkynyl picolinic acids and their use as herbicides” (Dow AgroSciences, LLC, priority 2007, dated 2014).

How the values were obtained:
[1] = tested on: wild poinsettia (Euphorbia heterophylla); assay: General preemergence herbicidal activity, EPHHL; assay type: in vivo; conditions: applied to soil surface, visual score after 20-22 days, 0 = no injury, 100 = complete kill or no emergence, read-out: Pre-emergent Weed Control EPHHL; for pest or weed control at 140 g/ha: 140 g ai/ha
Description: (§1) Seeds of the desired test plant species were planted in a soil matrix prepared by mixing a loam soil (43 percent silt, 19 percent clay, and 38 percent sand, with a pH of about 8.1 and an organic matter content of about 1.5 percent) and sand in a 70 to 30 ratio. The soil matrix was contained in plastic pots with a surface area of 127 square centimeters. When required to ensure good germination and healthy plants, a fungicide treatment and/or other chemical or physical treatment was applied. A weighed amount, determined by the highest rate to be tested, of each test compound was placed in a 25 mL glass vial and was dissolved in 6 mL of a 97:3 v/v (volume/volume) mixture of acetone and DMSO to obtain concentrated stock solutions. […] The stock solutions obtained were diluted with 18 mL of a 0.1% v/v aqueous solution of Tween® 20 surfactant to obtain spray solutions containing the highest application rate. Additional application rates were obtained by serial dilution of 12 mL of the high rate solution into a solution containing 3 mL of 97:3 v/v mixture of acetone and DMSO and 9 mL of the 0.1% v/v aqueous solution of Tween® 20 surfactant to obtain 1/2X, 1/4X, 1/8X and 1/16X rates of the high rate. Compound requirements are based upon a 12 mL application volume at a rate of 187 L/ha. Formulated compounds were applied to the soil surface with an overhead Mandel track sprayer equipped with a […] nozzles calibrated to deliver 187 L/ha over an application area of 0.503 square meters at a spray height of 18 inches (43 cm) above the soil surface. Control pots were sprayed in the same manner with the solvent blank. The treated pots and control pots were placed in a greenhouse maintained with an approximate 15 hour photoperiod and temperatures of about 23-29° C. during the day and 22-28° C. during the night. Nutrients and water were added on a regular basis and supplemental lighting was provided with overhead metal halide 1000-Watt lamps as necessary. The water was added by top-irrigation. After 20-22 days, the condition of the test plants that germinated and grew as compared with that of the untreated plants that emerged and grew was determined visually and scored on a scale of 0 to 100 percent where 0 corresponds to no injury and 100 corresponds to complete kill or no emergence.

[2] = tested on: lambsquarter (Chenopodium album); assay: General preemergence herbicidal activity, CHEAL; assay type: in vivo; conditions: applied to soil surface, visual score after 20-22 days, 0 = no injury, 100 = complete kill or no emergence, read-out: Pre-emergent Weed Control CHEAL; for pest or weed control at 140 g/ha: 140 g ai/ha
Description: as §1

rice (Oryza sativa) [3] = assay: General preemergence herbicidal activity, ORYSA; assay type: in vivo; conditions: applied to soil surface, visual score after 20-22 days, 0 = no injury, 100 = complete kill or no emergence, read-out: Pre-emergent Weed Control ORYSA; for plant injury at 140 g/ha: 140 g ai/ha
Description: as §1

[4] = tested on: velvetleaf (Abutilon theophrasti); assay: General postemergence herbicidal activity, ABUTH; assay type: in vivo; conditions: Abutilon theophrasti, post-emergence, 336 h, postemergence spray, visual score after 14 days, 0 = no injury, 100 = complete kill, read-out: Post-emergent Weed Control ABUTH; for pest or weed control at 280 g/ha: 280 g ai/ha; for pest or weed control at 70 g/ha: 70 g ai/ha; for pest or weed control at 140 g/ha: 140 g ai/ha
Method in brief: (§2)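 Postemergence spray, 187 L/ha track sprayer, first–second true leaf stage; highest rate plus 1/2X, 1/4X, 1/8X, 1/16X. Sub-irrigated greenhouse, 14 d. Visual injury vs untreated, 0 = none, 100 = complete kill.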

[5] = tested on: barnyardgrass (Echinochloa crus-galli); assay: General postemergence herbicidal activity, ECHCG; assay type: in vivo; conditions: Echinochloa crus-galli, post-emergence, 336 h, postemergence spray, visual score after 14 days, 0 = no injury, 100 = complete kill, read-out: Post-emergent Weed Control ECHCG; for pest or weed control at 280 g/ha: 280 g ai/ha; for pest or weed control at 70 g/ha: 70 g ai/ha; for pest or weed control at 140 g/ha: 140 g ai/ha
Method in brief: as §2

rice (Oryza sativa) [6] = assay: General postemergence herbicidal activity, ORYSA; assay type: in vivo; conditions: Oryza sativa, post-emergence, 336 h, postemergence spray, visual score after 14 days, 0 = no injury, 100 = complete kill, read-out: Post-emergent Weed Control ORYSA; for plant injury at 280 g/ha: 280 g ai/ha; for plant injury at 70 g/ha: 70 g ai/ha; for plant injury at 140 g/ha: 140 g ai/ha
Method in brief: as §2

[7] = tested on: wild poinsettia (Euphorbia heterophylla); assay: General postemergence herbicidal activity, EPHHL; assay type: in vivo; conditions: Euphorbia heterophylla, post-emergence, 336 h, postemergence spray, visual score after 14 days, 0 = no injury, 100 = complete kill, read-out: Post-emergent Weed Control EPHHL; for pest or weed control at 280 g/ha: 280 g ai/ha; for pest or weed control at 70 g/ha: 70 g ai/ha; for pest or weed control at 140 g/ha: 140 g ai/ha
Method in brief: as §2

[8] = tested on: barnyardgrass (Echinochloa crus-galli); assay: General preemergence herbicidal activity, ECHCG; assay type: in vivo; conditions: applied to soil surface, visual score after 20-22 days, 0 = no injury, 100 = complete kill or no emergence, read-out: Pre-emergent Weed Control ECHCG; for pest or weed control at 140 g/ha: 140 g ai/ha
Description: as §1

[9] = tested on: lambsquarter (Chenopodium album); assay: General postemergence herbicidal activity, CHEAL; assay type: in vivo; conditions: Chenopodium album, post-emergence, 336 h, postemergence spray, visual score after 14 days, 0 = no injury, 100 = complete kill, read-out: Post-emergent Weed Control CHEAL; for pest or weed control at 280 g/ha: 280 g ai/ha; for pest or weed control at 70 g/ha: 70 g ai/ha; for pest or weed control at 140 g/ha: 140 g ai/ha
Method in brief: as §2

[10] = tested on: velvetleaf (Abutilon theophrasti); assay: General preemergence herbicidal activity, ABUTH; assay type: in vivo; conditions: applied to soil surface, visual score after 20-22 days, 0 = no injury, 100 = complete kill or no emergence, read-out: Pre-emergent Weed Control ABUTH; for pest or weed control at 140 g/ha: 140 g ai/ha
Description: as §1

Row | Compound | pest or weed control at 140 g/ha [1] [%] | pest or weed control at 140 g/ha [2] [%] | plant injury at 140 g/ha (rice (Oryza sativa) [3]) [%] | pest or weed control at 280 g/ha [4] [%] | pest or weed control at 280 g/ha [5] [%] | plant injury at 280 g/ha (rice (Oryza sativa) [6]) [%] | pest or weed control at 280 g/ha [7] [%] | pest or weed control at 140 g/ha [8] [%] | pest or weed control at 280 g/ha [9] [%] | pest or weed control at 140 g/ha [10] [%] | pest or weed control at 70 g/ha [4] [%] | pest or weed control at 70 g/ha [5] [%] | plant injury at 70 g/ha (rice (Oryza sativa) [6]) [%] | pest or weed control at 70 g/ha [7] [%] | pest or weed control at 70 g/ha [9] [%] | pest or weed control at 140 g/ha [4] [%] | pest or weed control at 140 g/ha [5] [%] | plant injury at 140 g/ha (rice (Oryza sativa) [6]) [%] | pest or weed control at 140 g/ha [7] [%] | pest or weed control at 140 g/ha [9] [%] | other results
1 | CCOC(=O)c1nc(C2CC2)nc(N)c1C [Compound 1, 6-Amino-2-cyclopropyl-5-methylpyrimidine-4-carboxylic acid ethyl ester] | 100 | 100 | 30 | 15 | 0 | 0 | 100 | 80 | 80 | 80 |  |  |  |  |  |  |  |  |  |  | 
2 | C=Cc1c(N)nc(-c2ccc(Cl)c(OC)c2F)nc1C(=O)OC [Compound 3, 6-Amino-2-(4-chloro-2-fluoro-3-methoxyphenyl)-5-vinylpyrimidine-4-carboxylic acid methyl ester] | 100 | 100 | 30 |  |  |  |  | 80 |  | 80 | 100 | 95 | 15 | 100 | 100 |  |  |  |  |  | 
3 | C=Cc1c(N)nc(-c2ccc(Cl)c(F)c2F)nc1C(=O)OC [Compound 11, 6-Amino-2-(4-chloro-2,3-difluorophenyl)-5-vinyl-pyrimidine-4-carboxylic acid methyl ester] |  |  |  |  |  |  |  |  |  |  | 100 | 90 | 0 | 100 | 100 |  |  |  |  |  | pest or weed control at 70 g/ha ([1]; 70 g ai/ha): 100%; pest or weed control at 70 g/ha ([2]; 70 g ai/ha): 100%; plant injury at 70 g/ha (rice (Oryza sativa) [3]; 70 g ai/ha): 95%; pest or weed control at 70 g/ha ([8]; 70 g ai/ha): 100%; pest or weed control at 70 g/ha ([10]; 70 g ai/ha): 100%
4 | CCc1c(N)nc(-c2ccc(Cl)c(OC)c2F)nc1C(=O)OC [Compound 21, 6-Amino-2-(4-chloro-2-fluoro-3-methoxyphenyl)-5-ethyl-pyrimidine-4-carboxylic acid methyl ester] | 80 | 40 | 0 |  |  |  |  | 0 |  | 60 |  |  |  |  |  | 85 | 70 | 0 | 100 | 100 | 
5 | C=Cc1c(N)nc(-c2ccc(Cl)cc2)nc1C(=O)O [Compound 43, 6-Amino-2-(4-chlorophenyl)-5-vinylpyrimidine-4-carboxylic acid] | 100 | 100 | 90 | 90 | 90 | 35 | 100 | 90 | 100 | 100 |  |  |  |  |  |  |  |  |  |  | 
6 | C=Cc1c(N)nc(-c2ccc(Cl)c(OC)c2)nc1C(=O)O [Compound 45, 6-Amino-2-(4-chloro-3-methoxyphenyl)-5-vinylpyrimidine-4-carboxylic acid] | 0 | 60 | 30 | 0 | 60 | 0 | 60 | 10 | 95 | 0 |  |  |  |  |  |  |  |  |  |  | 
7 | C=Cc1c(N)nc(-c2ccc(Cl)c(C(C)F)c2F)nc1C(=O)O (stereo not drawn) [Compound 47, 6-Amino-2-(4-chloro-2-fluoro-3-(1-fluoroethyl)phenyl)-5-vinylpyrimidine-4-carboxylic acid] |  |  |  |  |  |  |  |  |  |  | 90 | 100 | 50 | 100 | 100 |  |  |  |  |  | melting point: 150 to 153 °C
8 | C=Cc1c(N)nc(C2CC2)nc1C(=O)O [Compound 57, 6-amino-2-cyclopropyl-5-vinylpyrimidine-4-carboxylic acid] |  |  |  |  |  |  |  |  |  |  |  |  |  |  |  | 90 | 30 | 5 | 100 | 100 | melting point: 187 to 189 °C
9 | C=Cc1c(N)cc(-c2ccc(Cl)cc2F)nc1C(=O)O [Compound 60, 4-Amino-6-(4-chloro-2-fluorophenyl)-3-vinylpyridine-2-carboxylic acid] |  |  |  |  |  |  |  |  |  |  |  |  |  |  |  | 70 | 35 | 15 | 80 | 100 | melting point: 209 to 211 °C
